Experimental data taken from PMC6511062, “Preclinical candidate for the treatment of visceral leishmaniasis that acts through proteasome inhibition” (Proceedings of the National Academy of Sciences of the …, 2019).
Where two headings read alike, the source gives them in different places.

Experiments:
[1] = system: Salmonella typhimurium TA1535, TA1537, TA98, TA100 and Escherichia coli WP2uvrA(pKM101); assay: Bacterial mutation screening assay (Ames test), overall outcome; type: cell-based; conditions: presence and absence of S9-mix
Experimental: i. Bacterial Mutation (Ames) Assay
Compound 6 was tested in a bacterial mutation screening assay (Ames test) with Salmonella typhimurium TA1535, TA1537, TA98, TA100 and Escherichia coli WP2uvrA(pKM101) in the presence and absence of an exogenous mammalian oxidative metabolism system (S9-mix). The maximum concentration tested and […]
Compound 6a was tested in a bacterial mutation screening assay (Ames test) with […]
Compound 7a was tested in a bacterial mutation screening assay (Ames test) with […]
(§1) The bacterial mutation screening assay was a plate incorporation test carried out as previously described15 and according to current methodology. […]

[2] = target: chymotrypsin-like activity of the L. donovani proteasome (Leishmania donovani, UniProt A0A3S7XA80+A0ACM8QMP6); assay: biochemical
chymotrypsin-like activity of the L. donovani proteasome (Leishmania donovani, UniProt A0A3S7XA80+A0ACM8QMP6), sequence (A0ACM8QMP6 100-302): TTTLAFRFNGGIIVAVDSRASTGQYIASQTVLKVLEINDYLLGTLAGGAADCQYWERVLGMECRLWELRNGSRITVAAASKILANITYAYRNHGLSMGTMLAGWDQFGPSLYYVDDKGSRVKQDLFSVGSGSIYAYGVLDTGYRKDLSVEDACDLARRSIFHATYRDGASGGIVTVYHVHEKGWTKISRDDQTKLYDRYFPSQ
chymotrypsin-like activity of the L. donovani proteasome (Leishmania donovani, UniProt A0A3S7XA80+A0ACM8QMP6), sequence (A0A3S7XA80 1-206): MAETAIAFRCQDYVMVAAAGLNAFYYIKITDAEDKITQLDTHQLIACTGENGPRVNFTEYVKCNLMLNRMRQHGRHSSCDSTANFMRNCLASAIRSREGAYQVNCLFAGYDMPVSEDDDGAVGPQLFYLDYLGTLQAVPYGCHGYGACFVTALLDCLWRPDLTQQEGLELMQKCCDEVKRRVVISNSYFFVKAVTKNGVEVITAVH
Experimental: (§8) An in vitro assay was developed that enabled the chymotrypsin-like activity and additional proteolytic activities associated with the proteasome to be directly monitored within proteasome-enriched parasite cell lysates. Likewise, human proteasome from two sources (i.e., commercially pure 26S and enriched proteasome fractions from THP-1 lysates) was tested using the same biochemical assays.
(§9) Proteasome enrichment by ultracentrifugation
(§10) The protocol described by Kisselev et al.34 was adapted to enrich the proteasomes present in L. donovani and THP1 crude extracts. L. donovani or THP1 cells were resuspended in sucrose buffer (50 mM Tris buffer pH 7.5, 5 mM Magnesium chloride, 1 mM EDTA, 50 mM NaCl, 250 mM sucrose, 2 mM ATP, 1 mM DTT) and lysed by nitrogen cavitation for 15 min (110 bars of 1500 psi). Lysates were centrifuged at 20,000g for 30 min at 4 °C and supernatants containing soluble protein were subjected to an ultracentrifugation step at 300,000g for 2h at 4 °C. The resulting proteasome-containing pellets were resuspended in sucrose buffer and left on ice for 30 min to complete solubilization. Samples were centrifuged for 10 min at 20,000 g to remove insoluble material. Proteins contained in supernatant (proteasome enriched fraction) were measured by Bradford.
Proteasome activity assays
(§11) Compounds were dispensed into black 384-well assay plates (Greiner) by acoustic dispensing (LabCyte ECHO). For potency determinations, eleven-point, one in three dilution curves were generated, with a top concentration of 100 µM. Three proteasome activities were measured using a commercially available indirect enzyme-based luminescent assay kit (Promega) with Suc-LLVY-aminoluciferin, Z-LRR-aminoluciferin and Z-nLPnLD-aminoluciferin used as substrates for chymotrypsin-like, trypsin-like and caspase-like activities, respectively. In addition to proteasome samples: L. donovani and THP1-enriched proteasomes, commercially available human purified 26S proteasome (Boston Biochem) was also assessed.

[3] = target: chymotrypsin-like activity of the L. donovani proteasome (Leishmania donovani, UniProt A0A3S7XA80+A0ACM8QMP6, G197C/T30A); assay: biochemical
chymotrypsin-like activity of the L. donovani proteasome (Leishmania donovani, UniProt A0A3S7XA80+A0ACM8QMP6, G197C/T30A), sequence (A0ACM8QMP6 entry or part of it, stated change not applied): as the sequence (A0ACM8QMP6 100-302) above
chymotrypsin-like activity of the L. donovani proteasome (Leishmania donovani, UniProt A0A3S7XA80+A0ACM8QMP6, G197C/T30A), sequence (A0A3S7XA80 whole entry, stated change not applied): as the sequence (A0A3S7XA80 1-206) above
Experimental: as §8, §9, §10
Proteasome activity assays
as §11

[4] = target: T1, human purified 26S proteasome (Homo sapiens, UniProt P28074+P49721); assay: Proteasome activity assay, chymotrypsin-like, purified human 26S; type: biochemical
T1 construct: purchased Boston Biochem
Experimental: Proteasome activity assays
Compounds were dispensed into black 384-well assay plates (Greiner) by acoustic dispensing (LabCyte ECHO). For potency determinations, eleven-point, one in three dilution curves were generated, with a top concentration of 100 µM. Three proteasome activities were measured using a commercially available indirect enzyme-based luminescent assay kit (Promega) with Suc-LLVY-aminoluciferin, Z-LRR-aminoluciferin and Z-nLPnLD-aminoluciferin used as substrates for chymotrypsin-like, trypsin-like and caspase-like activities, respectively. In addition to proteasome samples: L. donovani and THP1-enriched proteasomes, commercially available human purified 26S proteasome (Boston Biochem) was also assessed. Proteasome final assay concentration were 0.025 mg/ml for L. donovani and THP1-enriched proteasomes and 1 nM for human purified 26S proteasome. Proteasome solution was added to the plates containing the compounds one hour before adding the proteasome substrate solution.
Substrate solution was then added and after 30 min of incubation luminescent signal was measured in an Envision reader (PerkinElmer).

[5] = system: TA100
Experimental: (§2) oxidative metabolism system (S9-mix). The maximum concentration tested and […]
(§3) Compound 7a was tested in a bacterial mutation screening assay (Ames test) with Salmonella typhimurium TA1535, TA1537, TA98, TA100 and Escherichia coli WP2uvrA(pKM101) in the presence and absence of an exogenous mammalian […]
as §1

[6] = system: TA1535
Experimental: as §2, §3, §1

[7] = system: Leishmania tarentolae; assay: Potency against L. tarentolae; type: cell-based
From the text: The potency of 8 against the nonpathogenic Leishmania spp. […] Apo (3.3 Å) and 8-liganded (2.8 Å) (Fig. 5A) L. tarentolae 20S proteasome structures were obtained using single-particle cryo-EM (SI Appendix, Figs. S11–S15 and Table S9).

[8] = system: L. donovani promastigotes; assay: Cell cycle (FACS) analysis, L. donovani promastigotes; type: cell-based, Leishmania donovani; conditions: 5x EC50
Experimental: (§4) consisted of 1 µL (40 ng) of cDNA, 10 µL of Brilliant III Ultra-Fast QPCR Master Mix (Agilent Technologies), 1 µL (500 nM) each of the forward and reverse primers, and 0.3 µl (30 nM) of reference dye and nuclease-free PCR grade-treated water. PCR was performed using an Agilent Mx3005P machine with the following cycling conditions:
(§5) 95°C for 3 min; 40 cycles of 95°C for 20 s; then 60 °C for 20 s. The reference gene TERT (Tb927.11.10190, telomerase reverse transcriptase) was used to provide a baseline of transcription levels for normalization of the data. Relative quantification in the tetracycline-induced cell lines were normalized to the un-induced cell line using the […]
(§6) h. Morphological analysis […]
(§7) Cultures of bloodstream T. brucei and L. donovani promastigotes at starting cell densities of 5 x 105 were incubated with concentrations of compound 7 equivalent to 5x their respective EC50 values. […] After washing, cell densities were adjusted to 5 × 10^5 cells mL, re-suspended in 500 µL of PBS containing 50 µg/mL propidium iodide, 50 µg/mL RNase and 0.1% Triton X-100, incubated at room temperature for 20 min in the dark and analysed using FACSort analytical flow cytometer using Cellquest software (BD Biosciences). j. […]

[9] = system: bloodstream T. brucei; assay: Cell cycle (FACS) analysis, bloodstream T. brucei; type: cell-based, Trypanosoma brucei; conditions: 5x EC50
Experimental: as §4, §5, §6, §7

[10] = with S9-mix, dose level 50 per plate
[11] = with S9-mix, dose level 150 per plate
[12] = with S9-mix, dose level 500 per plate
[13] = with S9-mix, dose level 1500 per plate
[14] = with S9-mix, dose level 2500 per plate
[15] = with S9-mix, dose level 5000 per plate
[16] = without S9-mix, dose level 50 per plate
[17] = without S9-mix, dose level 150 per plate
[18] = without S9-mix, dose level 500 per plate
[19] = without S9-mix, dose level 1500 per plate
[20] = without S9-mix, dose level 2500 per plate
[21] = without S9-mix, dose level 5000 per plate

For `O=C(Nc1ccc(F)c(-c2ccn3c(N4CCOCC4)cnc3n2)c1)N1CCCC1` [Compound 8], the AMES [1] was “negative”, the IC50 [2] was 0.16 ± 0.01 µM and the IC50 [3] was greater than 100 µM. For the same compound, the IC50 [4] was 13 ± 0.88 µM, the “Mean revertants per plate” value [5, 10] was 123.0 and the “Mean revertants per plate” value [5, 11] was 96.5. The “Mean revertants per plate” value [5, 12] was 106.5, the “Mean revertants per plate” value [5, 13] was 118.0 and the “Mean revertants per plate” value [5, 14] was 101.0. For the same compound, the “Mean revertants per plate” value [5, 15] was 122.5, the “Mean revertants per plate” value [5, 16] was 99.0 and the “Mean revertants per plate” value [5, 17] was 97.0. The “Mean revertants per plate” value [5, 18] was 86.0, the “Mean revertants per plate” value [5, 19] was 109.5 and the “Mean revertants per plate” value [5, 20] was 91.5. The “Mean revertants per plate” value [5, 21] was 94.5, the “Mean revertants per plate” value [6, 10] was 12.0 and the “Mean revertants per plate” value [6, 11] was 10.0. For the same compound, the “Mean revertants per plate” value [6, 12] was 17.5, the “Mean revertants per plate” value [6, 13] was 13.5 and the “Mean revertants per plate” value [6, 14] was 12.5. The “Mean revertants per plate” value [6, 15] was 9.0, the “Mean revertants per plate” value [6, 16] was 19.0 and the “Mean revertants per plate” value [6, 17] was 15.0. For the same compound, the “Mean revertants per plate” value [6, 18] was 21.5, the “Mean revertants per plate” value [6, 19] was 16.0 and the “Mean revertants per plate” value [6, 20] was 15.5. For the same compound, the “Mean revertants per plate” value [6, 21] was 18.0 and the EC50 [7] was 0.04 µM.

With `O=C(Nc1ccc(F)c(-c2cn3nc(-c4ccccc4)cnc3n2)c1)N1CCCC1` [Compound 7] the “effect on cell cycle progression” value [8] was “accumulation of cells in G2/M” and the “effect on cell cycle progression” value [9] was “accumulation of cells in G2/M”.
